In general, inhibition refers to the change of the read-out against control, counted positive when it falls. Usually IC50 stands for the concentration that gives 50% inhibition.

Where two headings read alike, the source gives them in different places.

One test relates to LOX IMVI. The experiment in a line: NCI-60 one-dose SRB screen (Melanoma). The format is cell-based. Conditions: Homo sapiens, single dose 10 µM, 48 h, read-out: Growth inhibition percent (GI %).
The test system of another test is IGROV1. In words: NCI-60 one-dose SRB screen (Ovarian cancer). The format is cell-based. Conditions: Homo sapiens, IGROV-1, single dose 10 µM, 48 h, read-out: Growth inhibition percent (GI %).
The subject of another test is OVCAR-3. In words: NCI-60 one-dose SRB screen (Ovarian cancer). As to conditions: Homo sapiens, single dose 10 µM, 48 h, read-out: Growth inhibition percent (GI %). The format is cell-based.
The test system of another test is OVCAR-4. In words: NCI-60 one-dose SRB screen (Ovarian cancer). Conditions: Homo sapiens, single dose 10 µM, 48 h, read-out: Growth inhibition percent (GI %). The format is cell-based.
In the next test the test system is OVCAR-5. In words: NCI-60 one-dose SRB screen (Ovarian cancer). Format: cell-based. As to conditions: Homo sapiens, single dose 10 µM, 48 h, read-out: Growth inhibition percent (GI %).
A further test relates to OVCAR-8. In words: NCI-60 one-dose SRB screen (Ovarian cancer). The format is cell-based. Conditions: Homo sapiens, single dose 10 µM, 48 h, read-out: Growth inhibition percent (GI %).
The subject of the next test is SK-OV-3. The experiment in a line: NCI-60 one-dose SRB screen (Ovarian cancer). Conditions: Homo sapiens, single dose 10 µM, 48 h, read-out: Growth inhibition percent (GI %). Format: cell-based.
For the next test, the system named is DU-145. In words: NCI-60 one-dose SRB screen (Prostate Cancer). The format is cell-based. Conditions: Homo sapiens, single dose 10 µM, 48 h, read-out: Growth inhibition percent (GI %).
For the next test, the system named is PC-3. The experiment in a line: NCI-60 one-dose SRB screen (Prostate Cancer). As to conditions: Homo sapiens, single dose 10 µM, 48 h, read-out: Growth inhibition percent (GI %). Format: cell-based.
The test system of another test is BT-549. In words: NCI-60 one-dose SRB screen (Breast Cancer). The format is cell-based. Conditions: Homo sapiens, single dose 10 µM, 48 h, read-out: Growth inhibition percent (GI %).
Another test has as its system HS 578T. In words: NCI-60 one-dose SRB screen (Breast Cancer). The format is cell-based. Conditions: Homo sapiens, single dose 10 µM, 48 h, read-out: Growth inhibition percent (GI %).
Another test deals with MCF-7. The experiment in a line: NCI-60 one-dose SRB screen (Breast Cancer). The format is cell-based. Conditions: Homo sapiens, MCF7, single dose 10 µM, 48 h, read-out: Growth inhibition percent (GI %).
The subject of another test is MDA-MB-231/ATCC. In words: NCI-60 one-dose SRB screen (Breast Cancer). The format is cell-based. Conditions: Homo sapiens, single dose 10 µM, 48 h, read-out: Growth inhibition percent (GI %).
The test system of the next test is MDA-MB-468. In words: NCI-60 one-dose SRB screen (Breast Cancer). As to conditions: Homo sapiens, single dose 10 µM, 48 h, read-out: Growth inhibition percent (GI %). Format: cell-based.
For the next test, the system named is T-47D. The experiment in a line: NCI-60 one-dose SRB screen (Breast Cancer). As to conditions: Homo sapiens, T47D, single dose 10 µM, 48 h, read-out: Growth inhibition percent (GI %). The format is cell-based.
For test [1], the system named is panel of 60 cancer cell lines. In words: NCI-60 one-dose SRB screen, range over the whole panel. Format: cell-based. As to conditions: Homo sapiens; single dose 10 µM, SRB assay, range over the tested cell lines; read-out: growth inhibition (GI %) range over the panels. As for the experimental part: The National Cancer Institute (NCI) Developmental Therapeutic Program (www.dtp.nci.nih.gov) selected the 20 novel synthesized compounds 4a-e, 5a-e, 6a-c, 9a-e, 10 and 11 to test for their anticancer activity at a single dose of 10 µM using SRB assay. […] Supplementary Data S3; Table S1 presents the detailed screening results of the most promising compounds. The preliminary screening’s detailed results for the remaining compounds are elucidated in the (Supplementary Data S3; Table S2).
The guidelines of the Drug Evaluation Branch’s protocol at the NCI in Bethesda served as the basis for the in vitro anticancer screening assays. at one dose 10 µM against a panel of 60 cancer cell lines. The human tumor cell lines used belonged to nine panels: leukemia, melanoma, lung, colon, CNS, ovarian, renal, prostate and breast cancers using the sulforhodamine B (SRB) assay in a 48 h drug exposure protocol.
(The SRB assay estimates cell density from bound dye.)

The subject of the next test is NCI/ADR-RES. In words: NCI-60 one-dose SRB screen (Ovarian cancer). The format is cell-based. Conditions: Homo sapiens, single dose 10 µM, 48 h, read-out: Growth inhibition percent (GI %).
Test [2] has as its system MCF-7 breast cancer cell line. The experiment in a line: Cell cycle analysis by flow cytometry. Format: cell-based, human. As to conditions: 24 h.
For test [3], the system named is MCF-7 breast cancer cell line. The experiment in a line: Apoptotic assay, Annexin V-FITC/propidium iodide. The format is cell-based, human. As to the method: S.1.4. Cell cycle analysis and Apoptotic assay
S.1.4.1. Cell cycle analysis […]
Briefly, cell lines were cultured and incubated with each of the tested compounds for 48 h. Then, the cells were collected by centrifugation and resuspended in 500 μl of 1X binding buffer. 5 μl of Annexin V-FITC was added and 5 μl of propidium iodide (PI […], optional.). The cells were incubated at room temperature for 5 min in the dark. Annexin V-FITC binding was analyzed by flow cytometry (Ex = 488 nm; Em = 530 nm) using FITC signal detector and PI staining was analyzed by the phycoerythrin emission signal detector.
S.1.4.2. Apoptotic assay: cell lines were cultured and incubated with each of the tested compounds for 48 h.
Then, the cells were collected by centrifugation and resuspended in 500 μl of 1X binding buffer. 5 μl of Annexin V-FITC was added and 5 μl of propidium iodide (PI 50 mg/ml, optional.). the cells were incubated at room temperature for 5 min in the dark. Annexin V-FITC binding was analyzed by flow cytometry (Ex = 488 nm; Em = 530 nm) using FITC signal detector and PI staining was analyzed by the phycoerythrin emission signal detector.

The subject of test [4] is MCF-7 breast cancer cell line. In words: In vitro cytotoxicity, MTT assay. As to conditions: Homo sapiens. In general terms: Tetrazolium dyes change colour on reduction, which living cells bring about.
Experimental: In vitro cytotoxic activity:
Firstly, cultures were delivered into sterile area then each vial was supplied with 3 mL of medium or balanced salt solution free from phenol red and serum. Cultures were subjected to incubation foe 2-4 g. After the incubation period, MTT solubilization solution was added to remove the produced formazan crystals. Spectrophotometric measurement of absorbance was carried out at 690 nm for the background which then subtracted from absorbance measured at 570 nm. Five different drug concentrations were used 100, 25, 6.3, 1.6 and 0.4 nM and measured in triplicate.
was determined using Annexin V-FITC Apoptosis Detection Kit (Bio Vision) according to the manufacturer’s procedures. Briefly, cell lines were cultured and incubated with each of the tested compounds for 48 h. Then, the cells were collected by centrifugation and resuspended in 500 μl of 1X binding buffer. 5 μl of Annexin V-FITC was added and 5 μl of propidium iodide (PI 50 mg/ml, optional.). The cells were incubated at room temperature for
Where [5] appears, read: MCF-7, hypoxic conditions, at IC50 (3.50 µM).
[6] abbreviates: MCF-7, normal conditions, at IC50 (5.21 µM).

Consider `NS(=O)(=O)c1ccc(NC(=O)COC(=O)c2cn(-c3ccc(S(N)(=O)=O)cc3)nc2-c2ccc(Br)cc2)cc1` [Compound 4d, 2-Oxo-2-[(4-sulfamoylphenyl)amino] ethyl 3-(4-bromophenyl)-1-(4-sulfamoylphenyl)-1H-pyrazole-4-carboxylate], for which the inhibition at 10 µM in the test with LOX IMVI is 47.7%; with IGROV1, less than 5%; in the test with OVCAR-3 it was 23%; in the test with OVCAR-4, 34.6%; in the test on OVCAR-5, 12.3%; in the test on OVCAR-8, less than 5%. In addition, the inhibition at 10 µM is less than 5% in the test with SK-OV-3; less than 5% in the test with DU-145; 23.1% in the test on PC-3; 79.9% with BT-549; 36.9% in the test on HS 578T; 56.4% in the test with MCF-7. Also, the inhibition at 10 µM was 33.9% in the test with MDA-MB-231/ATCC, 66.5% in the test on MDA-MB-468, 52.3% in the test with T-47D and 8.46 to 86.5% in test [1].

On to `CCOC(=O)c1ccc(NC(=O)COC(=O)c2cn(-c3ccc(S(N)(=O)=O)cc3)nc2-c2ccc(C)cc2)cc1` [Compound 5b, 2-[(4-(Ethoxycarbonyl)phenyl)amino]-2-oxoethyl 1-(4-sulfamoylphenyl)-3-(p-tolyl)-1H-pyrazole-4-carboxylate], for which the inhibition at 10 µM in the test with LOX IMVI turned out to be 53.6%; in the test on IGROV1, 21.4%; in the test with NCI/ADR-RES, 22.3%; in the test with OVCAR-3, 53.5%; with OVCAR-4 it was 58.8%; with OVCAR-5, 33.1%. Moreover, the inhibition at 10 µM is 12.8% in the test on OVCAR-8; less than 5% in the test with SK-OV-3; 28.9% in the test with DU-145; 68.7% with PC-3; 39.7% in the test on BT-549; 57.9% in the test with HS 578T. Further, the inhibition at 10 µM in the test on MCF-7 was determined as 78.6%; in the test on MDA-MB-231/ATCC, 27.8%; with MDA-MB-468, 52.5%; in the test with T-47D, 53.5%. The “DNA content % G0-G1” value in test [2] (setting [5]) worked out at 48.13%; in [2] (setting [6]) it was 67.39%. Further, the “DNA content % G2/M” value is recorded as 32.28% in [2] (setting [5]) and 3.05% in test [2] (setting [6]). The “DNA content % S” value in test [2] (setting [5]) is given as 19.59%; in [2] (setting [6]) it was 29.56%. Further, the “Apoptosis % Early %” value in test [3] (MCF-7, hypoxic conditions) came out at 21.41%; in test [3] (MCF-7, normal conditions), 13.52%. Moreover, the “Apoptosis % Late %” value in test [3] (MCF-7, hypoxic conditions) is reported as 11.49%; in test [3] (MCF-7, normal conditions), 25.05%. The “Apoptosis % Total %” value in [3] (MCF-7, hypoxic conditions) came out at 37.31%. Also, the Necrosis % in [3] (MCF-7, hypoxic conditions) was found to be 4.41%; in test [3] (MCF-7, normal conditions), 3.76%. The concentration for half-maximal inhibition (IC50) in [4] (MCF7, read-out: IC50 (µM) ± SD cytotoxic activity, MCF-7, MTT, normal conditions) was determined as 5.21 ± 0.21 µM; in test [4] (MCF7, read-out: IC50 (µM) ± SD cytotoxic activity, MCF-7, MTT, under hypoxia) it was 3.5 ± 0.14 µM.

The values are drawn from paper PMC12454493, “Insight on novel sulfamoylphenyl pyrazole derivatives as anticancer carbonic anhydrase inhibitors” (Molecular Diversity, 2024).
